From US9650395B2, “Antibacterial compounds and methods for use” (PTC Therapeutics, Inc., priority 2011, dated 2017)
In brackets after ≈: the same amount, converted by molar mass.

Tests used:
[1] = test system: E. coli ELZ4251 (MDR clinical isolate); experiment: Antibacterial activity, MIC, MDR E. coli ELZ4251; type: cell-based, Escherichia coli; conditions: Escherichia coli, E. coli ELZ4251, MDR clinical isolate; read-out: MIC ELZ4251
[2] = test system: super sensitive Gram-negative Escherichia coli (E. coli) BAS849; experiment: Antibacterial activity, microbroth dilution MIC, E. coli BAS849; type: cell-based; conditions: Escherichia coli; E. coli BAS849, microbroth dilution; read-out: MIC, BAS849
[3] = test system: resistant K. pneumoniae MXX1232 (MDR clinical isolate); experiment: Antibacterial activity, MIC, resistant K. pneumoniae MXX1232; type: cell-based, Klebsiella pneumoniae; conditions: Klebsiella pneumoniae; resistant K. pneumoniae MMX1232, MDR clinical isolate; read-out: MIC MMX1232
[4] = test system: Acinetobacter baumannii (A. baumannii) BAA747; experiment: Antibacterial activity, MIC, A. baumannii BAA747; type: cell-based; conditions: Acinetobacter baumannii; A. baumannii BAA747; read-out: MIC BAA747
[5] = test system: resistant A. baumannii MXX2240 (MDR clinical isolate); experiment: Antibacterial activity, MIC, resistant A. baumannii MXX2240; type: cell-based, Acinetobacter baumannii; conditions: Acinetobacter baumannii, resistant A. baumannii MMX2240, MDR clinical isolate; read-out: MIC MMX2240
[6] = test system: E. coli ELZ4000 (MDR clinical isolate); experiment: Antibacterial activity, MIC, MDR E. coli ELZ4000; type: cell-based, Escherichia coli; conditions: Escherichia coli; E. coli ELZ4000, MDR clinical isolate; read-out: MIC ELZ4000
[7] = test system: Neisseria meningitidis (N. meningitidis) 13090; experiment: Antibacterial activity, MIC, N. meningitidis 13090; type: cell-based; conditions: Neisseria meningitidis; N. meningitidis 13090; read-out: MIC 13090
[8] = test system: Pseudomonas aeruginosa (P. aeruginosa) 27853; experiment: Antibacterial activity, MIC, P. aeruginosa 27853; type: cell-based; conditions: Pseudomonas aeruginosa, P. aeruginosa 27853; read-out: MIC 27853
Description: (§1) The antibacterial activity from a microbroth dilution method may be presented as the minimum inhibitory concentration (MIC in […]). The MIC value is the lowest concentration of a drug which prevents macroscopically visible bacterial growth under test conditions.
Antibacterial activity of test compounds against the Gram-negative bacterium Pseudomonas aeruginosa (P. aeruginosa) 27853 is shown in Table 5.

[9] = test system: Moraxella catarrhalis (M. catarrhalis) 25238; experiment: Antibacterial activity, MIC, M. catarrhalis 25238; type: cell-based; conditions: Moraxella catarrhalis, M. catarrhalis 25238; read-out: MIC 25238
[10] = test system: Gram-positive Staphylococcus aureus (S. aureus) 29213; experiment: Antibacterial activity, microbroth dilution MIC, S. aureus 29213; type: cell-based; conditions: Staphylococcus aureus; S. aureus 29213, microbroth dilution; read-out: MIC, 29213
[11] = test system: quinolone resistant E. coli LZ3111; experiment: Antibacterial activity, MIC, quinolone resistant E. coli LZ3111; type: cell-based, Escherichia coli; conditions: Escherichia coli, read-out: MIC, LZ3111
Description: as §1
Mutations in these regions are known to confer a high level resistance to the quinolone class of antibiotics.

[12] = test system: control Gram-negative E. coli 25922 strain; experiment: Antibacterial activity, microbroth dilution MIC, E. coli 25922; type: cell-based, Escherichia coli; conditions: Escherichia coli; E. coli 25922, microbroth dilution; read-out: MIC, 25922
[13] = test system: Haemophilus influenzae (H. influenzae) 49247; experiment: Antibacterial activity, MIC, H. influenzae 49247; type: cell-based; conditions: Haemophilus influenzae; H. influenzae 49247; read-out: MIC 49247
Outline: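 Antibacterial activity against the Gram-negative organism Haemophilus influenzae strain 49247 was measured by microbroth dilution. The minimum inhibitory concentration (MIC) was taken as the lowest drug concentration that stopped bacterial growth from being visible to the naked eye under the test conditions.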

[14] = test system: Klebsiella pneumoniae (K. pneumoniae) 35657; experiment: Antibacterial activity, MIC, K. pneumoniae 35657; type: cell-based; conditions: Klebsiella pneumoniae

Row | Compound | MIC [1] [µg/mL] | MIC [2] [µg/mL] | MIC [3] [µg/mL] | MIC [4] [µg/mL] | MIC [5] [µg/mL] | MIC [6] [µg/mL] | MIC [7] [µg/mL] | MIC [8] [µg/mL] | MIC [9] [µg/mL] | MIC [10] [µg/mL] | MIC [11] [µg/mL] | MIC [12] [µg/mL] | MIC [13] [µg/mL] | MIC [14] [µg/mL]
1 | Cc1c(-c2ccc(N(C)C)cc2)[nH]c(=O)c(C(=O)O)c1O [Cpd 5, 6-[4-(dimethylamino)phenyl]-4-hydroxy-5-methyl-2-oxo-1,2-dihydropyridine-3-carboxylic acid] | 1 to 3.5 (≈ 3.47 to 12.1 µM) | < 1 | 12.5 to 150 (≈ 43.4 to 520 µM) | 3.5 to 12.5 (≈ 12.1 to 43.4 µM) | < 1 | 3.5 to 12.5 (≈ 12.1 to 43.4 µM) | < 1 | 12.5 to 150 (≈ 43.4 to 520 µM) | 1 to 3.5 (≈ 3.47 to 12.1 µM) | 12.5 to 150 (≈ 43.4 to 520 µM) | 1 to 3.5 (≈ 3.47 to 12.1 µM) | 12.5 to 150 (≈ 43.4 to 520 µM) | 1 to 3.5 (≈ 3.47 to 12.1 µM) | 12.5 to 150 (≈ 43.4 to 520 µM)
2 | CCc1cc(C(=O)O)c(=O)[nH]c1-c1ccc(N(C)C)nc1 [Cpd 86, 6-[6-(dimethylamino)pyridin-3-yl]-5-ethyl-2-oxo-1,2-dihydropyridine-3-carboxylic acid] | – | 1 to 3.5 (≈ 3.48 to 12.2 µM) | 12.5 to 150 (≈ 43.5 to 522 µM) | 12.5 to 150 (≈ 43.5 to 522 µM) | 12.5 to 150 (≈ 43.5 to 522 µM) | – | < 1 | 12.5 to 150 (≈ 43.5 to 522 µM) | 1 to 3.5 (≈ 3.48 to 12.2 µM) | 12.5 to 150 (≈ 43.5 to 522 µM) | 12.5 to 150 (≈ 43.5 to 522 µM) | 12.5 to 150 (≈ 43.5 to 522 µM) | < 1 | 12.5 to 150 (≈ 43.5 to 522 µM)
3 | CCc1c(-c2ccc(N(C)C)nc2)[nH]c(=O)c(C(=O)O)c1O [Cpd 87, 6-[6-(dimethylamino)pyridin-3-yl]-5-ethyl-4-hydroxy-2-oxo-1,2-dihydropyridine-3-carboxylic acid] | 1 to 3.5 (≈ 3.3 to 11.5 µM) | < 1 | 12.5 to 150 (≈ 41.2 to 495 µM) | 3.5 to 12.5 (≈ 11.5 to 41.2 µM) | < 1 | 1 to 3.5 (≈ 3.3 to 11.5 µM) | < 1 | 12.5 to 150 (≈ 41.2 to 495 µM) | 1 to 3.5 (≈ 3.3 to 11.5 µM) | 12.5 to 150 (≈ 41.2 to 495 µM) | 1 to 3.5 (≈ 3.3 to 11.5 µM) | 12.5 to 150 (≈ 41.2 to 495 µM) | 1 to 3.5 (≈ 3.3 to 11.5 µM) | 12.5 to 150 (≈ 41.2 to 495 µM)
4 | CCc1cc(C(=O)O)c(=O)[nH]c1-c1ccc(N(C)C)cc1 [Cpd 88, 6-[4-(dimethylamino)phenyl]-5-ethyl-2-oxo-1,2-dihydropyridine-3-carboxylic acid] | 12.5 to 150 (≈ 43.7 to 524 µM) | < 1 | 12.5 to 150 (≈ 43.7 to 524 µM) | < 1 | 12.5 to 150 (≈ 43.7 to 524 µM) | 12.5 to 150 (≈ 43.7 to 524 µM) | < 1 | 3.5 to 12.5 (≈ 12.2 to 43.7 µM) | < 1 | 3.5 to 12.5 (≈ 12.2 to 43.7 µM) | 12.5 to 150 (≈ 43.7 to 524 µM) | < 1 | 3.5 to 12.5 (≈ 12.2 to 43.7 µM) | < 1
5 | CCc1c(-c2ccc(N(C)C)cc2)[nH]c(=O)c(C(=O)O)c1O [Cpd 90, 6-[4-(dimethylamino)phenyl]-5-ethyl-4-hydroxy-2-oxo-1,2-dihydropyridine-3-carboxylic acid] | 12.5 to 150 (≈ 41.3 to 496 µM) | < 1 | 12.5 to 150 (≈ 41.3 to 496 µM) | 1 to 3.5 (≈ 3.31 to 11.6 µM) | 3.5 to 12.5 (≈ 11.6 to 41.3 µM) | 12.5 to 150 (≈ 41.3 to 496 µM) | < 1 | 12.5 to 150 (≈ 41.3 to 496 µM) | < 1 | 3.5 to 12.5 (≈ 11.6 to 41.3 µM) | 12.5 to 150 (≈ 41.3 to 496 µM) | 1 to 3.5 (≈ 3.31 to 11.6 µM) | – | 3.5 to 12.5 (≈ 11.6 to 41.3 µM)
6 | CCc1cc(C(=O)O)c(=O)[nH]c1-c1ccc(N2C[C@@H]3[C@@H](N)[C@@H]3C2)cc1 [Cpd 177, 6-{4-[(1R,5S,6s)-6-amino-3-azabicyclo[3.1.0]hex-3-yl]phenyl}-5-ethyl-2-oxo-1,2-dihydropyridine-3-carboxylic acid] | 12.5 to 150 (≈ 36.8 to 442 µM) | < 1 | 12.5 to 150 (≈ 36.8 to 442 µM) | 1 to 3.5 (≈ 2.95 to 10.3 µM) | 12.5 to 150 (≈ 36.8 to 442 µM) | 12.5 to 150 (≈ 36.8 to 442 µM) | < 1 | 1 to 3.5 (≈ 2.95 to 10.3 µM) | < 1 | 12.5 to 150 (≈ 36.8 to 442 µM) | 12.5 to 150 (≈ 36.8 to 442 µM) | < 1 | – | < 1
7 | CCc1cc(C(=O)O)c(=O)[nH]c1-c1ccc(N2C[C@@H]3[C@H](C2)[C@H]3NCc2ccccc2)cc1 [Cpd 178, 6-{4-[(1R,5S,6s)-6-(benzylamino)-3-azabicyclo[3.1.0]hex-3-yl]phenyl}-5-ethyl-2-oxo-1,2-dihydropyridine-3-carboxylic acid] | 12.5 to 150 (≈ 29.1 to 349 µM) | < 1 | 12.5 to 150 (≈ 29.1 to 349 µM) | 1 to 3.5 (≈ 2.33 to 8.15 µM) | 12.5 to 150 (≈ 29.1 to 349 µM) | 12.5 to 150 (≈ 29.1 to 349 µM) | – | 12.5 to 150 (≈ 29.1 to 349 µM) | – | 12.5 to 150 (≈ 29.1 to 349 µM) | 12.5 to 150 (≈ 29.1 to 349 µM) | < 1 | – | < 1
8 | CCc1c(-c2ccc(N3C[C@H]4CCN[C@H]4C3)cc2)[nH]c(=O)c(C(=O)O)c1O.Cl [Cpd 246, 5-ethyl-6-{4-[(3aR,6aR)-hexahydropyrrolo[3,4-b]pyrrol-5(1H)-yl]phenyl}-4-hydroxy-2-oxo-1,2-dihydropyridine-3-carboxylic acid hydrochloride] | 3.5 to 12.5 | < 1 | 12.5 to 150 | 12.5 to 150 | 12.5 to 150 | 12.5 to 150 | 1 to 3.5 | 12.5 to 150 | 3.5 to 12.5 | 12.5 to 150 | – | 1 to 3.5 | 1 to 3.5 | 1 to 3.5
9 | CCc1c(-c2ccc(N3CCC(CNC)C3)cc2)[nH]c(=O)c(C(=O)O)c1O.Cl (stereo not shown) [Cpd 254, 5-ethyl-4-hydroxy-6-(4-{3-[(methylamino)methyl]pyrrolidin-1-yl}phenyl)-2-oxo-1,2-dihydropyridine-3-carboxylic acid hydrochloride] | 3.5 to 12.5 | < 1 | 12.5 to 150 | 3.5 to 12.5 | 12.5 to 150 | 12.5 to 150 | 1 to 3.5 | 3.5 to 12.5 | 12.5 to 150 | 12.5 to 150 | 3.5 to 12.5 | 1 to 3.5 | 12.5 to 150 | 3.5 to 12.5
10 | CCc1c(-c2ccc(CCN(C)C)cc2)[nH]c(=O)c(C(=O)O)c1O [Cpd 343, 6-(4-(2-(dimethylamino)ethyl)phenyl)-5-ethyl-4-hydroxy-2-oxo-1,2-dihydropyridine-3-carboxylic acid] | – | 3.5 to 12.5 (≈ 10.6 to 37.8 µM) | 12.5 to 150 (≈ 37.8 to 454 µM) | 12.5 to 150 (≈ 37.8 to 454 µM) | 12.5 to 150 (≈ 37.8 to 454 µM) | – | – | 12.5 to 150 (≈ 37.8 to 454 µM) | – | 12.5 to 150 (≈ 37.8 to 454 µM) | 12.5 to 150 (≈ 37.8 to 454 µM) | 12.5 to 150 (≈ 37.8 to 454 µM) | – | 12.5 to 150 (≈ 37.8 to 454 µM)
